Data from US20070154549A1, “Multiparticulate formulations for oral delivery” (VECTURA LTD, priority 2003, published 2007).
Counter-ions that a name gives are not always drawn.

Experiment: Dissolution studies / drug release
Assay type: physicochemical
Settings: levels of hydrophobic melt binder of up to 20%

- drug release: do not delay drug release
SMILES: CN(C)CCC(c1ccc(Cl)cc1)c1ccccn1 (stereo not shown) [chlorpheniramine maleate]
